The values that follow come from patent US7728015B2, “Compositions for weight management” (Mor Research Applications Ltd., priority 2004, dated 2010).

The structures appear in SMILES notation. Where two headings read alike, the source gives them in different places.

For data set [1] the following is noted: rats, cited from earlier work.
For data set [2] the following is noted: in vivo, cited from earlier work.
For data set [3] the following is noted: pygmy goats, high doses intraperitoneally; cited from earlier work.
The conditions of data set [4]: rats, cited from earlier work. The source holds these as a separate data set.
Data set [5] in a line: Blood metabolite levels of a healthy overweight person before and after one month of betahistine. The format is in vivo, human. Also noted: Total cholesterol / HDL-cholesterol / LDL-cholesterol / Triglycerides: unit not given here.
The conditions of data set [6]: cited from earlier work.
The target of data set [7] is H3-receptor (Homo sapiens, UniProt Q9Y5N1). The conditions noted are these: receptor binding studies; cited from earlier work.
Data set [8] can be described thus: Randomized placebo controlled double-blinded study of oral betahistine on food intake, caloric intake and weight in obese persons. The format is in vivo, human. As for the experimental part:
Weight, caloric intake (24 hour recall) and appetite during the day (VAS, Visual Analogue Score) were obtained on day 0, 14 and 28 of the study. Subjects were instructed to eat according to their appetite without limitations. Statistical significance was assessed with t-test. BMI stands for body mass index.

Setting [9] is: Day 30, betahistine 16 mg twice daily, blood test.
[10] abbreviates: betahistine 16 mg orally twice a day, FIG. 5.

Sequence of H3-receptor (Q9Y5N1 whole entry): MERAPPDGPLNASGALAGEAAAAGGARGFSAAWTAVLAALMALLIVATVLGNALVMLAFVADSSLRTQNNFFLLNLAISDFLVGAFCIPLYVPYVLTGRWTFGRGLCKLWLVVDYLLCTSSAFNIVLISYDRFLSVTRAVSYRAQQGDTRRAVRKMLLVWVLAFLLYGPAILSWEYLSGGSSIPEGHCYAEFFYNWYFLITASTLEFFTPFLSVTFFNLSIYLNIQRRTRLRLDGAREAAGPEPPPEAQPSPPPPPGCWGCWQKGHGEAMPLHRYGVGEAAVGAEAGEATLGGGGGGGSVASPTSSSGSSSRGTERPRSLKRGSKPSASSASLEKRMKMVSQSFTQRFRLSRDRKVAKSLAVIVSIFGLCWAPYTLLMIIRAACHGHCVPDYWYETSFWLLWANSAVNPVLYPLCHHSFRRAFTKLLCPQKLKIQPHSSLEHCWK

Turning to `Cc1nc(N)nc(N)c1-c1ccc(Cl)c(Cl)c1` [metoprine], the “intakes of carbohydrates or protein” value in data set [1] (FIG. 2) is reported as “no marked effect”. In data set [1] (intraperitoneal injection), the “daily energy intake and ingestion of fat” value is “suppressed daily energy intake and ingestion of fat”. Moreover, the half-life in data set [2] is 216 h.
Regarding `CNCCc1ccccn1` [betahistine, 2-[2-(methylamino)ethyl]pyridine], in data set [3], the food intake result is “decreased food intake” and the water intake result is recorded as “increased water intake”. Also, in data set [4] (given intragastrically), the food intake result is “this effect was not seen”. Further, the food intake entry in data set [4] (given intraperitoneally) is listed as “decreased food intake”. Moreover, in data set [5] (setting [9]), the Fructoseamine worked out at 202, the HDL-cholesterol is on record as 58, the LDL-cholesterol turned out to be 84 and the Total cholesterol stood at 155. In addition, the Triglycerides in data set [5] (setting [9]) is 62. Moreover, in data set [5] (Day 30 vs Day 0), the “Fructoseamine Change” value is reported as “+4%”, the “HDL-cholesterol Change” value is on record as “+7%”, the “LDL-cholesterol Change” value is −15% and the “Total cholesterol Change” value was −7%. For the same compound, the “Triglycerides Change” value in data set [5] (Day 30 vs Day 0) is on record as −10%. Also, the “weight gain from week 2 to the end of the study” value in data set [6] (betahistine and olanzapine for 6 weeks, three patients) was “no weight gain was observed”. For the same compound, the “mean weight gain compared with olanzapine/placebo-treated patients” value in data set [6] (betahistine/olanzapine-treated patients, 6 weeks) is given as “lower”. In addition, the half-life entry in data set [2] was “about 3.5 hours”. The half-life in data set [2] (listed as Betahistine) is 3.5 h. Further, the H3-receptor activity entry in data set [7] is “potent H3-receptor antagonist”. Further, in data set [8] (Subject No. 5, day 5, betahistine 16 mg twice a day), the “adverse event reported by a subject” value is “food aversion that did not allow them to consume any food”. Besides, in data set [8] (setting [10]), the “reduction in carbohydrate consumption” value was determined as 6%, the “reduction in fat consumption” value was determined as 49% and the “reduction in protein consumption” value came out at 35%. In addition, the total caloric intake in data set [8] (betahistine 16 mg orally twice a day, day 14 of treatment) is on record as 80 percents of the pre-treatment level. Further, the total caloric intake in data set [8] (betahistine 16 mg orally twice a day, day 28 of treatment) is recorded as 68 percents of the pre-treatment level. In addition, the “subjects who lost more than 1 kg during the study period” value in data set [8] (treatment group, 28 day study, no food restriction) was “Four out of seven”.
